Test results from US20220080026A1, “FORMULATIONS” (Sublimity Therapeutics Limited, priority 2013, published 2022).
Structures can show the parent of a compound that is named as a salt.

Conditions: heated at 60-70° C.

For `NNc1nncc2ccccc12` [Hydralazine HCl], the “solubility in the aqueous phase of the formulation” value was “fully soluble”.
